Laboratory results reported in patent US9957270B2, “Fused pyrimidine-based hydroxamate derivatives” (Agency for Science, Technology and Research, priority 2014, dated 2018).

Legend:
HDAC1 = HDAC1 (Homo sapiens, UniProt Q13547); experiment: HDAC enzyme assay, recombinant HDAC1
HDAC6 = molecular target: T1, HDAC6 (Homo sapiens, UniProt Q9UBN7); experiment: HDAC enzyme assay, recombinant HDAC6
T1 sequence (Q9UBN7 1-1215): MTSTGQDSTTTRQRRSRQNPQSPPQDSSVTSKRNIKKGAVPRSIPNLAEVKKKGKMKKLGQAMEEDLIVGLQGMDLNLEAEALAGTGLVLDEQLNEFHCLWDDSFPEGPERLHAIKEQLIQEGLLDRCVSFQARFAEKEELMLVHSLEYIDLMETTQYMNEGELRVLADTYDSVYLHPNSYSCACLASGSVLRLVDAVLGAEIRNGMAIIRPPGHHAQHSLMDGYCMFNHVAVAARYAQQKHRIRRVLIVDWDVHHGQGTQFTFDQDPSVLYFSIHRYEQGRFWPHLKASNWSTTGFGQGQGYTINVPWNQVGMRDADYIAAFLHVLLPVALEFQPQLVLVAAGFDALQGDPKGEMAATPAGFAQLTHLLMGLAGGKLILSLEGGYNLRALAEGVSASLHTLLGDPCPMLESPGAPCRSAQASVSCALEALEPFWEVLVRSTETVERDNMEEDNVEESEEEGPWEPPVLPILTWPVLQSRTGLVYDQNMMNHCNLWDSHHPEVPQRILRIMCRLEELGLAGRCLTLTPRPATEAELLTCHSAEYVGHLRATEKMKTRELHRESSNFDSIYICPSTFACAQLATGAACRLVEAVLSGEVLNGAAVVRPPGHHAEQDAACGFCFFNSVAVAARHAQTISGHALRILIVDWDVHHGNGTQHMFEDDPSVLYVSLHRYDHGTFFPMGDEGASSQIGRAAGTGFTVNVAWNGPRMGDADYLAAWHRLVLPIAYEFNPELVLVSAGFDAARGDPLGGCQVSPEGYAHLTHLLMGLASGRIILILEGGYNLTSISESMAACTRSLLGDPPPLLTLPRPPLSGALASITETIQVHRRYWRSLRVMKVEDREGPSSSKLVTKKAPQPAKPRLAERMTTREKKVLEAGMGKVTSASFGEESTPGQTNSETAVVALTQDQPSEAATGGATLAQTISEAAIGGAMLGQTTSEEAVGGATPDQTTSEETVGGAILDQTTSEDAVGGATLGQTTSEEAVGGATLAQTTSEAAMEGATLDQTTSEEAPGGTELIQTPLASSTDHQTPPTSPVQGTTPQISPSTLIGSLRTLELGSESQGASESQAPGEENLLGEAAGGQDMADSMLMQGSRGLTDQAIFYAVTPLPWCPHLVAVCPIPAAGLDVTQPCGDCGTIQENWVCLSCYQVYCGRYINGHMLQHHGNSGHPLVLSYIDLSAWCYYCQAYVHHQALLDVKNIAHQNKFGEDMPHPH

p110α(H1047R)/p85α = molecular target: T2, p110α(H1047R)/p85α (Homo sapiens, UniProt P42336, H1047R); experiment: Kinase enzyme assay (ADP-Glo), PI3Kα (H1047R); type: biochemical; conditions: read-out: In Vitro Enzymatic IC50 PI3Kα (H1047R)
T2 construct: purchased BPS 40641
T2 sequence (P42336 whole entry H1047R): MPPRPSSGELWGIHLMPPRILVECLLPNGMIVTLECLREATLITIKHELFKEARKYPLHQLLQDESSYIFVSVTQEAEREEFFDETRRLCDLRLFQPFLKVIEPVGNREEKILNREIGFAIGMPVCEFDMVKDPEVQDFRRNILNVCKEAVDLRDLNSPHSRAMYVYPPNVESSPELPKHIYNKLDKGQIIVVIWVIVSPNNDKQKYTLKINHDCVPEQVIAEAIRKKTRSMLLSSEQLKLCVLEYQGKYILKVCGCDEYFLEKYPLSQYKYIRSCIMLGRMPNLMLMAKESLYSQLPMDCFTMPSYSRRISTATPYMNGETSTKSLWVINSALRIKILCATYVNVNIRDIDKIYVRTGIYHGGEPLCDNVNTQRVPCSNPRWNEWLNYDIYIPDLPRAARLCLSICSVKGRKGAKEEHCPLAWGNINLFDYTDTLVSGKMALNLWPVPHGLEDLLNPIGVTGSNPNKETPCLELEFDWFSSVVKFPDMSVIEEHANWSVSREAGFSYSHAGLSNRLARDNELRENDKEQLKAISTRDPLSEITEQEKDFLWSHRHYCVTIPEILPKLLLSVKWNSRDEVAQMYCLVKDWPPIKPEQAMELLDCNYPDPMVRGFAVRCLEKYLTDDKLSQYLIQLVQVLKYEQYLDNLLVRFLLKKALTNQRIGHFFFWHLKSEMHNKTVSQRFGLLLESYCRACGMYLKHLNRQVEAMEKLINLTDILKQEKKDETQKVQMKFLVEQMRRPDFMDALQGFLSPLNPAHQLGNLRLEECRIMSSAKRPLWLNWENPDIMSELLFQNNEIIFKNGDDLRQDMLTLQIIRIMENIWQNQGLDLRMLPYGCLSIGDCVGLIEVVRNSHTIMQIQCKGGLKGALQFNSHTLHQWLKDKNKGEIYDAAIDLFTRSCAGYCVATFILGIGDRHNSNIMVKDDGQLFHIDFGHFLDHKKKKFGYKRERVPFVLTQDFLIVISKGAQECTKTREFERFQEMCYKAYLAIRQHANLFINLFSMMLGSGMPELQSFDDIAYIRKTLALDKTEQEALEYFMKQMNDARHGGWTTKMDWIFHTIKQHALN
T2 sequence (P27986 whole entry partner): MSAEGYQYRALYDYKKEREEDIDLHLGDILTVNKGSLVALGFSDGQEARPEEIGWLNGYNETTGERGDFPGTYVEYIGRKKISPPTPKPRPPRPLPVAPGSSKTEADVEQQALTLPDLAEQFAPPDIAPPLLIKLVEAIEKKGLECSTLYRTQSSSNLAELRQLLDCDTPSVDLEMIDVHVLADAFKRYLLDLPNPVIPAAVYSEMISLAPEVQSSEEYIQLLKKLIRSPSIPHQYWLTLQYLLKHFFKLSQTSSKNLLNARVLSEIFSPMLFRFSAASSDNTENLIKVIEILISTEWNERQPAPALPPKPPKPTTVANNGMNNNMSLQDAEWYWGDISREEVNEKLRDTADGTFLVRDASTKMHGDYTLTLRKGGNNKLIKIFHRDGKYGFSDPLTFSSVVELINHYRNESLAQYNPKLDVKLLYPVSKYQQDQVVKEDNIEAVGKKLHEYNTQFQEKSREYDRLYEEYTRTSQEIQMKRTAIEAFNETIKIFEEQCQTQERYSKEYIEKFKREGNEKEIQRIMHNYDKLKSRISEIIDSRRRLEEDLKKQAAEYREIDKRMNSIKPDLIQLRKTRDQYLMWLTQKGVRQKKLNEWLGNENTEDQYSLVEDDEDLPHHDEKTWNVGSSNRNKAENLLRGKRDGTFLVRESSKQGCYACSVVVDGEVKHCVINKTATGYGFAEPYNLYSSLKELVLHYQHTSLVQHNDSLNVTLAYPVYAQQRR

[1] = molecular target: HDAC (HeLa nuclear extracts); experiment: HDAC enzyme assay, HeLa nuclear extracts; conditions: read-out: In Vitro Enzymatic IC50 HDAC (HeLa)
PI3Kα = molecular target: T3, PI3Kα (Homo sapiens, UniProt P42336); experiment: Kinase enzyme assay (ADP-Glo), PI3Kα; type: biochemical; conditions: read-out: In Vitro Enzymatic IC50 PI3Kα
T3 construct: purchased Invitrogen, or BPS Bioscience Inc., or SignalChem PV4788 / 40620 / P27-18H
T3 sequence (P42336 whole entry): as the sequence (P42336 whole entry H1047R) above, with R1047H counted along it
T3 sequence (P27986 whole entry partner): as the sequence (P27986 whole entry partner) above

Daudi = experiment: Anti-proliferative assay (cellular IC50), Daudi; conditions: Homo sapiens, read-out: In Vitro Cellular IC50 Daudi
Description: (§3) Cells were cultivated at 37° C., 5% CO2 in media containing 10% FBS and 2 mM glutamine Cells were routinely monitored with MycoAlert™ PLUS Mycoplasma Detection Kit (Lonza Walkersville, Inc.) to make sure they were mycoplasma free. Antibiotics (100 U/mL of penicillin and 100 μg/mL of streptomycin) were only added to the media used for compound dilution and cells in 96-well assay plates.
(§4) For a typical screening experiment, cells (100 μL/well) are inoculated into 96 well microtiter plates at plating densities ranging from 2,000 to 30,000 cells/well depending on the doubling time of individual cell lines and assay linearity. […] Suspension cells are treated with test compounds immediately after cell inoculation.
(§5) Test compounds are serially diluted (3-fold or 4-fold, 8-concentration) using the same media and added to the plates (15 to 25 μL/well). After 72 h of cultivation, the plates are assayed for cell cytotoxicity/viability by using the following two methods.
(§6) Cells in plates are fixed with cold trichloroacetic acid (TCA) (50% w/v in DI water, 1/4 volume of the medium in each well), and incubated at 4° C. for 1 h (adherent cells) or 2 h (suspension cells). The plates are washed 5 times (tap water×3, DI water×2) and air-dried. SRB solution 0.4% (w/v) in 1% acetic acid is added to each well (60 μL/well) and the plates are incubated at room temperature for 30 min, then washed with 1% acetic acid solution 4 times, and air-dried.
(§7) The plates are added CellTiter-Glo® Reagent (95 μL/well) and read the luminescence on a BioTek H4 reader per manufacture's protocol.
(§8) The raw data are processed using BioTek's Software Gen5 (v2.03.01) to generate inhibitory IC50 values.

PC-3 cells = experiment: Caspase activity assay, PC-3 cells; type: cell-based, human; conditions: maximal caspase activity at 48 h
Description: (§1) Cells are cultivated and treated with test compounds in 96-well plates as described in the above Cell Culture and Anti-Proliferative Assays section. […] The incubation time can be extended up to overnight (18 h) if the Caspase activity is low. Staurosporine is used as positive control.
(§2) Y Axis is expressed as Mean±SD if applicable.

Raji = experiment: Anti-proliferative assay (cellular IC50), Raji; conditions: Homo sapiens, read-out: In Vitro Cellular IC50 Raji
Description: as §3, §4, §5, §6, §7, §8

A549 = experiment: Anti-proliferative assay (cellular IC50), A549; conditions: Homo sapiens, A549, read-out: In Vitro Cellular IC50 A549
Description: as §3, §4, §5, §6, §7, §8

MV-4-11 cells [2] = experiment: Caspase activity assay, MV-4-11 cells; type: cell-based, human; conditions: MV-4-11 cells; for EC50: maximal activity at 24 h, read-out: EC50 induction of caspase activity
Description: as §1, §2

HEL9217 = experiment: Anti-proliferative assay (cellular IC50), HEL9217; conditions: Homo sapiens, HEL 92.1.7, read-out: In Vitro Cellular IC50 HEL9217
Description: as §3, §4, §5, §6, §7, §8

PLC/PRF/5 = experiment: cells; conditions: Homo sapiens, PLC-PRF-5, read-out: In Vitro Cellular IC50 PLC/PRF/5
Description: as §3, §4, §5, §6, §7, §8

MV-4-11 cells [3] = experiment: Cell viability/cytotoxicity assay (CytoTox-Glo), MV-4-11 cells; type: cell-based, human; conditions: MV-4-11 cells, 48 h, CytoTox-Glo, read-out: cell death potency EC50
Description: Cells are cultivated and treated with test compounds in 96-well plates as described in the above Cell Culture and Anti-Proliferative Assays section, the content of dead cells and viable cells are measured using CytoTox-Glo™ Cytotoxicity Assay kit (Promega) per manufacture's protocol. Briefly, CytoTox-Glo™ Cytotoxicity Assay Reagent (48 μL/well) is added to the cells in 96-well plate and the luminescent signals are recorded using a BioTek Synergy H4 reader, then Lysis Reagent (48 μL/well) is added and the luminescent signals derived from both dead and viable cells are recorded. Viability can be calculated by subtracting the luminescent signal resulting from experimental cell death from total luminescent values. Staurosporine is used as positive control.
Fold of cell death of treated vs untreated was monitored at different time points. […] Y Axis is expressed as Mean±SD if applicable.

U138MG = experiment: Anti-proliferative assay (cellular IC50), U138MG; conditions: Homo sapiens, U138-MG, read-out: In Vitro Cellular IC50 U138MG
Description: as §3, §4, §5, §6, §7, §8

A-431 = experiment: Anti-proliferative assay (cellular IC50), A-431; conditions: Homo sapiens, A-431, read-out: In Vitro Cellular IC50 A-431
Description: as §3, §4, §5, §6, §7, §8

Chain of HDAC1 (Q13547 whole entry): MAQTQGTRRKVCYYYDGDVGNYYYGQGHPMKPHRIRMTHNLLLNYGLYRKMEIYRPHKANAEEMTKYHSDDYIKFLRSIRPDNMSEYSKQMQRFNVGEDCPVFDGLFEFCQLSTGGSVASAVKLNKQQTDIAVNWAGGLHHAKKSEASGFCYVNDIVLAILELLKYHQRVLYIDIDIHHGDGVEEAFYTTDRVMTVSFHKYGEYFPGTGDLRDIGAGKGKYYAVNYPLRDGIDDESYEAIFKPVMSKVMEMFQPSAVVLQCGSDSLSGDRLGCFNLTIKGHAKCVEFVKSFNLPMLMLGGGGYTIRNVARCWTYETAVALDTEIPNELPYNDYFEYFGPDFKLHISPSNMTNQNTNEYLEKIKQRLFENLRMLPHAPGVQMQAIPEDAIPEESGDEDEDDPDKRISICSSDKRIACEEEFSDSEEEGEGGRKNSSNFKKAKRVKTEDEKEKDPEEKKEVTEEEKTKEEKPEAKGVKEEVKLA

SMILES	IC50 (HDAC1)	IC50 (HDAC6)	IC50 (p110α(H1047R)/p85α)	IC50 [1]	IC50 (PI3Kα)	IC50 (Daudi)	Induction of caspase activity (comparison) (PC-3 cells)	IC50 (Raji)	IC50 (A549)	Induction of caspase activity (comparison) (MV-4-11 cells [2])	EC50 (MV-4-11 cells [2])	IC50 (HEL9217)	IC50 (PLC/PRF/5)	EC50 (MV-4-11 cells [3])	IC50 (U138MG)	IC50 (A-431)	EC50 (MV-4-11 cells [2]; Homo sapiens, MV4-11)	EC50 (MV-4-11 cells [3]; Homo sapiens, MV4-11)
CCn1c(CN(C)Cc2ccc(C(=O)NO)cc2)nc2c(N3CCOCC3)nc(-c3cnc(N)nc3)nc21 [compound 7]	10 to 100 nM	10 to 100 nM	10 to 100 nM	100 to 1000 nM	10 to 100 nM	–	–	–	–	–	–	–	–	–	–	–	–	–
CC(C)n1cnc2c(-c3cccc(OCCCC(=O)NO)c3)nc(N3CCOCC3)nc21 [compound 1]	10 to 100 nM	10 to 100 nM	1000 to 10000 nM	10 to 100 nM	1000 to 10000 nM	< 500 nM	more potent than vorinostat	500 to 2000 nM	500 to 2000 nM	more potent than vorinostat	520 nM	500 to 2000 nM	500 to 2000 nM	190 nM	500 to 2000 nM	2000 to 10000 nM	–	–
CS(=O)(=O)N1CCN(Cc2cc3nc(-c4cccc5[nH]ncc45)nc(N4CCOCC4)c3s2)CC1 [GDC-0941, reference compound]	–	–	–	–	–	< 500 nM	very weak activity	2000 to 10000 nM	< 500 nM	very weak activity and potency	–	2000 to 10000 nM	2000 to 10000 nM	–	500 to 2000 nM	< 500 nM	12700 nM	2750 nM
